Reference: patent US20150315218A1, “SALTS OF PRODRUGS OF PIPERAZINE AND SUBSTITUTED PIPERIDINE ANTIVIRAL AGENTS” (Bristol-Myers Squibb Company, priority 2004, published 2015)
Structures can show the parent of a compound that is named as a salt. Where two headings read alike, the source gives them in different places. One block for each molecule: values may come before it.

Columns and labels:
[1] = rat
[2] = dog
[3] = human
[4] = pH 7.5
[5] = rat, 10 μM
[6] = Oral dose escalation study in rats (Study D of Ica; historical Study E of IVc); type: in vivo; conditions: Sprague-Dawley, rat, plasma; for concentration at 24 h: read-out: C-24 hr; for AUC: read-out: Mean AUCtot
Experimental: Pharmacokinetic analysis was performed on Kinetica™.
The brain samples were blotted dry and the wet weights were recorded.

[7] = pKa; type: physicochemical; conditions: read-out: pKa (potentiometric)
[8] = system: HIV-1; test: Multiple dose study in HIV patients (antiviral activity of IVa); type: in vivo, human
Experimental: Based on the exposure data from the studies in normal volunteers, an efficacy study was carried out in HIV patients. […] “Antiviral Activity, Safety, and Tolerability of a Novel, Oral Small-Molecule HIV-1 Attachment Inhibitor, IVa, in HIV-1-Infected Subjects” G. Hanna, J. Lalezari, J. Hellinger, D. Wohl, T. Masterson, W. Fiske, J. Kadow, P-F. Lin, M. Giordano, R. Colonno, D. Grasela. Abstract J-32, Feb. 11, 2004, 11th Conference on Retroviruses and Opportunistic Infections (CROI), San Francisco, Calif. The study design included HIV+ adults who were either antiretroviral therapy naïve or off antiretroviral therapy for ≧16 weeks. Their CD4 counts were required to be ≧250 cells/mm3 and plasma HIV-1 RNA needed to be in the range 5,000-500,000 c/mL. There were 15 subjects in each dose arm and the ratio of patients receiving drug:placebo was 4:1.
The placebo-controlled, sequential study of IVa utilized an initial dose arm of 800 mg PO every 12 h followed by a second dosing arm of 1800 mg PO administered every 12 h. It is important to note that drug was administered in a capsule and in combination with a high fat meal to increase exposure and plasma levels. Study drug was administered for 7 days and the morning of Day 8. Subjects were followed for 14 days.

[9] = MAP studies G and H: PO dosing of diester IIa and monoester II′a in rats; type: in vivo, rat; conditions: 5 mg/kg; for AUC / Cmax / Tmax / bioavailability / half-life: male, Sprague-Dawley, rat, plasma, po; for half-life: read-out: T½ p.o. (converted)
Experimental: Compound IVa was administered in a polyethylene glycol 400 (PEG400)/ethanol (EtOH) solution (90/10, v/v) unless noted otherwise. Plasma and tissue samples were collected and stored at −20° C. until analysis. Male Sprague-Dawley rats (300-350 g, Hilltop Lab Animals, Inc., Scottdale, Pa. 15683) with cannulas implanted in the jugular vein and/or bile duct were used in the pharmacokinetic studies of compound IVa. Rats were fasted overnight in PO studies. Blood samples (0.3 mL) were collected from the jugular vein in EDTA-containing microtainer tubes (Becton Dickinson, Franklin Lakes, N.J. 07147) to obtain plasma. […] In the PO studies, rats (n=3) received PO doses of 5 and 100 mg/kg.
The procedure for the oral dosing leg of MAP study A1 was followed except that diester IIa was utilized in place of Compound IVa. […] The data is described in Table 10 below:
The procedure for the oral dosing leg of MAP study A1 was followed except that monoester II′a was utilized in place of Compound IVa. […]

[10] = 800 mg PO every 12 h with high fat meal
[11] = IVa following PO dosing of diester IIa
[12] = IVa following PO dosing of monoester II′a

- conversion of prodrug to parent in blood containing EDTA [1]: < 2%
- Icb ([1]; 0 min): 12 µM
- Icb ([1]; 15 min): 11 µM
- Icb ([1]; 90 min): 12 µM
- conversion of prodrug to parent in blood containing EDTA [2]: < 2%
- Icb ([2]; 0 min): 10 µM
- Icb ([2]; 15 min): 10 µM
- Icb ([2]; 90 min): 11 µM
- conversion of prodrug to parent in blood containing EDTA [3]: < 2%
- Icb ([3]; 0 min, 10 μM): 11 µM
- Icb ([3]; 15 min): 11 µM
- Icb ([3]; 30 min): 13 µM
- Icb ([3]; 45 min, 10 μM): 12 µM
- Icb ([3]; 60 min, 10 μM): 11 µM
- Icb ([3]; 90 min, 10 μM): 11 µM
- Icb ([4]; 0 min, 10 μM): 11 µM
- Icb ([4]; 15 min): 11 µM
- Icb ([4]; 30 min): 11 µM
- Icb ([4]; 45 min, 10 μM): 11 µM
- Icb ([4]; 60 min, 10 μM): 10 µM
- Icb ([4]; 90 min, 10 μM): 11 µM
- stability / conversion of prodrug to parent in Tris-HCl buffer ([4]; 90 min): less than 2%
- Icb ([5]; 0 min): 7.6 µM
- Icb ([5]; 15 min): 6.5 µM
- Icb ([5]; 90 min): 2.1 µM
Structure (SMILES): COc1cnc(-n2cnc(C)n2)c2c1c(C(=O)C(=O)N1CCN(C(=O)c3ccccc3)CC1)cn2COP(=O)(O)O [Icb, [3-[(4-benzoylpiperazin-1-yl)(oxo)acetyl]-4-methoxy-7-(3-methyl-1H-1,2,4-triazol-1-yl)-1H-pyrrolo[2,3-c]pyridin-1-yl]methyl dihydrogen phosphate, 2-amino-2-(hydroxymethyl)propane-1,3-diol salt (1:1)]

- concentration at 24 h ([6]; oral, 25 mg/kg): 0.61 µM
- concentration at 24 h ([6]; oral, 75 mg/kg): 5.2 µM
- concentration at 24 h ([6]; oral, 200 mg/kg): 10 µM
- Cmax ([6]; po, 25 mg/kg): 46 µM
- Tmax ([6]; po, 25 mg/kg): 4 h
- AUC ([6]; po, 25 mg/kg): 458 µM·h
- Cmax ([6]; po, 75 mg/kg): 86 µM
- Tmax ([6]; po, 75 mg/kg): 5 h
- AUC ([6]; po, 75 mg/kg): 1070 µM·h
- Cmax ([6]; po, 200 mg/kg): 42 µM
- Tmax ([6]; po, 200 mg/kg): 4 h
- AUC ([6]; po, 200 mg/kg): 518 µM·h
- Cmax ([6]; male, po, 5 mg/kg): 29 ± 14 µM
- Tmax ([6]; male, po, 5 mg/kg): 0.5 ± 0.25 h
- concentration at 24 h ([6]; male, po, 5 mg/kg): 0.029 ± 0.008 µM
- AUC ([6]; male, po, 5 mg/kg): 109 ± 15 µM·h
- Cmax ([6]; male, po, 25 mg/kg): 98 ± 21 µM
- Tmax ([6]; male, po, 25 mg/kg): 1.7 ± 2 h
- concentration at 24 h ([6]; male, po, 25 mg/kg): 0.35 ± 0.13 µM
- AUC ([6]; male, po, 25 mg/kg): 586 ± 53 µM·h
- Cmax ([6]; male, po, 200 mg/kg): 281 ± 55 µM
- Tmax ([6]; male, po, 200 mg/kg): 1.1 ± 0.8 h
- concentration at 24 h ([6]; male, po, 200 mg/kg): 58 ± 36 µM
- AUC ([6]; male, po, 200 mg/kg): 2920 ± 304 µM·h
Structure (SMILES): COc1cnc(-n2cnc(C)n2)c2[nH]cc(C(=O)C(=O)N3CCN(C(=O)c4ccccc4)CC3)c12 [IVc]

Structure (SMILES): O=C(C(=O)N1CCN(C(=O)c2ccccc2)CC1)c1cn(COP(=O)(O)O)c2c(-n3ccnn3)ncc(F)c12 [Ibb, [3-[(4-benzoylpiperazin-1-yl)(oxo)acetyl]-4-fluoro-7-(1H-1,2,3-triazol-1-yl)-1H-pyrrolo[2,3-c]pyridin-1-yl]methyl dihydrogen phosphate, L-lysine salt (1:1)]
- pKa [7]: 6.1

Structure (SMILES): COc1ncc(OC)c2c(C(=O)C(=O)N3CCN(C(=O)c4ccccc4)CC3)c[nH]c12 [IVa, N-(benzoyl)-N′-[(4,7-dimethoxy-6-azaindol-3-yl)-oxoacetyl]piperazine]
- Day 8 Change in CD4, Mean (SD) [8, 10]: 106 (151) cells/mm3
- Day 8 Change in CD4, Range [8, 10]: −214 to +272 cells/mm3
- Maximal Change in HIV RNA Over 14 days >0.5 log10 c/mL, n (%) [8, 10]: 8 (67%) n (%)
- Maximal Change in HIV RNA Over 14 days >1.0 log10 c/mL, n (%) [8, 10]: 7 (58%) n (%)
- Maximal Change in HIV RNA Over 14 days >1.5 log10 c/mL, n (%) [8, 10]: 3 (25%) n (%)
- Maximal change in HIV RNA Over 14 days, Mean (SD) [8, 10]: −1.00 (0.50) log10 c/mL
- Maximal change in HIV RNA Over 14 days, Range [8, 10]: −0.32 to −1.60 log10 c/mL
- Day 8 Change in HIV RNA, Mean (SD) ([8]; 800 mg PO every 12 h with high fat meal, HIV+ adults): −0.72 (0.51) log10 c/mL
- patients with >1.0 log drop in viral load ([8]; 800 mg dosing level with high fat meal): 58%
- mean response (drop in viral load) ([8]; 1800 mg every 12 h with high fat meal): −0.96 log 10
- Cp @ 24 hr p.o. (nM) [9, 11]: Not detected
- Cp @ 24 hr p.o. (nM) ([9]; IVa following PO dosing of monoester II′a, n = 2/3): 3.61 (n = 2/3) nM
- AUC [9, 11]: 4 ± 1 µM·h
- Cmax [9, 11]: 1.12 ± 0.27 µM
- Tmax [9, 11]: 2.7 ± 1.2 h
- bioavailability [9, 11]: 33%
- half-life [9, 11]: 1.3 ± 0.26 h
- AUC [9, 12]: 5.9 ± 2.2 µM·h
- Cmax [9, 12]: 1.59 ± 0.615 µM
- Tmax [9, 12]: 2 ± 1.7 h
- bioavailability [9, 12]: 44%
- half-life [9, 12]: 2.8 ± 1.6 h
